Experimental data taken from patent publication US20190225652A1, “GENERATION OF PEPTIDES” (Hexima Limited, priority 2015, published 2019).

B1: rOaAEP4: recombinant Oldenlandia affinis asparaginyl endopeptidase OaAEP4 (protein)
chain: MVRYPAGAVLLLVVLSVVAVDGARDGYLKLPSEVSDFFRPRNTNDGDDSVGTRWAVLLAGSNGYWNYRHQADLCHAYQILKRGGLKDENIVVFMYDDIAYNEENPRPGVIINSPHGSDVYAGVPKDYTGDEVNAKNFLAAILGNKSAITGGSGKVVDSGPNDHIFIYYTDHGAPGVIGMPSKPYLYADELNDALRKKHASGTYKSMVFYLEACEAGSMFDGLLPDGLNIYALTASNTTEGSWCYYCPGQDAGPPPEYSVCLGDFFSIAWLEDSDVHNLRSETLNQQYHNVKNRISYASHATQYGDLKRGVEGLFLYLGSNPENDNYTFVDDNVVRPSSKAVNQRDADLVHFWEKFRKAPEGSSKKEEAQKQILEAMSHRVHIDSSINLIGKLLFGIEKGHKILTAVRSAGHPLVDDWACLRSLVRTFETHCGSLSQYGMKHTRTLANICNAGITEEQMAEAASQACVSIPSNPWSSHDGGFSA
modifications: OaAEP4 aa
notes: recombinant Oldenlandia affinis asparaginyl endopeptidase OaAEP4
B2: rOaAEP3: recombinant Oldenlandia affinis asparaginyl endopeptidase OaAEP3 (protein)
chain: MVRYLAGAFQVVLLVVILSDIAISEERTDGYLKLPTEVSRFFRTPEQSSDGGDDSIGTRWAVLIAGSKGYDNYRHQADVCHAYQILKRGGLKDENIVVFMYDDIAYNESNPRPGVIINSPHGSDVYAGVPKDYTGDEVNAKNFLAAILGNKSAITGGSGKVVDSGPNDHIFIYYTDHGAPGVIGMPSKPYLYADELNDALRKKHASGTYKSMVFYLEACEAGSMFDGLLPDGLNIYALTASNTTEGSWCYYCPGQDAGPPPEYSVCLGDFFSIAWLEDSDVHNLRSETLNQQYHNVKNRISYASHATQYGDLKRGVEGLFLYLGSNPENDNYTFVDDNVVRPSSKAVNQRDADLVHFWEKFRKAPEGSSKKEEAQKQILEAMSHRVHIDSSINLIGKLLFGIEKGHKILTAVRSAGHPLVDDWACLRSLVRTFETHCGSLSQYGMKHTRTLANICNAGITEEQMAEAASQACVSIPSNPWSSHDGGFSA
modifications: Oldenlandia affinis OaAEP3

System: target peptide-linker-ubiquitin-6xHis fusion protein
Assay: AEP-mediated processing of target peptides fused to ubiquitin
Assay type: biochemical
Details: kalata B1-ubiquitin 260 μg mL^−1, AEP 19.7 μg mL^−1 total protein, 22 h, SDS-PAGE/anti-6xHis Western blot

| Molecule | proportion of fusion protein enzymatically processed (loss of precursor) |
| --- | --- |
| rOaAEP5: recombinant Oldenlandia affinis asparaginyl endopeptidase OaAEP5 | the bulk of the precursor was being enzymatically processed |
| B1 | a smaller proportion of the precursor protein was processed |
| B2 | the bulk of the precursor was being enzymatically processed |

System: rOaAEP1b
Sequence (as listed by the source): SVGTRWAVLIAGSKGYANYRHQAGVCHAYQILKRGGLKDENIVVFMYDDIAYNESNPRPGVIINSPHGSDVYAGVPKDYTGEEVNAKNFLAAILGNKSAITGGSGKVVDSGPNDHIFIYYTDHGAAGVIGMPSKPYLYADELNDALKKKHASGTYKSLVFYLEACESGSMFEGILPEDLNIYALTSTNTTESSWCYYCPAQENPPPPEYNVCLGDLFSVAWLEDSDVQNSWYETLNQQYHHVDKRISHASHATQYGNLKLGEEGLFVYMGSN
Assay: Cyclization assay with rOaAEP1b (MALDI MS)
Assay type: biochemical, Oldenlandia affinis
Details: MALDI MS

| Molecule | processing/cyclization by rOaAEP1b |
| --- | --- |
| VFAEFLPLFSKFGSRMHILK [native R1 peptide, reference compound] | No processing |

Same assay, conditions: rOaAEP1b 12 μg mL^−1 total protein, 22 hours; peak area as percentage of total peak area of that peptide; average of three experiments

| Molecule | Cyclic product (%) | Linear precursor (%) | Linear product (%) |
| --- | --- | --- | --- |
| GLPVFAEFLPLFSKFGSRMHILKSTRNGLP (rOaAEP1b-mediated processing) [SEQ ID NO: 26, R1 peptide derivative] | 78.8 | 21.2 | – |
| GLVFAEFLPLFSKFGSRMHILKNG (rOaAEP1b-mediated processing) [SEQ ID NO: 28, R1 peptide derivative] | – | 100 | – |
| GLVFAEFLPLFSKFGSRMHILKNGL (rOaAEP1b-mediated processing) [SEQ ID NO: 27, R1 peptide derivative] | 92.9 | 7.1 | – |
| KLVFAEFLPLFSKFGSRMHILKNGL (rOaAEP1b-mediated processing) [SEQ ID NO: 31, R1 peptide derivative] | 82.2 | 17.8 | – |
| QLVFAEFLPLFSKFGSRMHILKNGL (rOaAEP1b-mediated processing) [SEQ ID NO: 30, R1 peptide derivative] | 93.1 | 6.9 | – |
| VFAEFLPLFSKFGSRMHILKNGL (rOaAEP1b-mediated processing) [SEQ ID NO: 29, R1 peptide derivative] | 49.6 | 27.7 | 27.7 |

System: rOaAEP1b, rOaAEP3, rOaAEP4 and rOaAEP5
Assay: Cyclization assay with rOaAEP1b, rOaAEP3, rOaAEP4 and rOaAEP5 (MALDI/ESI MS)
Assay type: biochemical, Oldenlandia affinis
Details: peptides with added AEP recognition residues, 280 μM, enzymes 19.7 μg mL^−1 total protein, MS
Description: Linear target peptides (280 μM, unless otherwise indicated) were incubated with rOaAEP1b, rOaAEP3, rOaAEP4 or rOaAEP5 (total protein concentration as indicated in the description of figures) in activity buffer (50 mM sodium acetate, 50 mM NaCl, 1 mM ethylenediaminetetraacetic acid [EDTA], 0.5 μM Tris(2-carboxyethyl)phosphine hydrochloride [TCEP], pH 5). The reaction was allowed to proceed for up to 22 hours at room temperature and was analysed by matrix-assisted laser desorption/ionization mass spectrometry (MALDI MS), high performance liquid chromatography (HPLC) or nuclear magnetic resonance (NMR) as appropriate.
Cyclization or inter-molecular ligation of linear target peptides was monitored by MALDI or ESI MS. In both cases, the reaction mixture (5-50 μL) was de-salted using C18 zip tips (Millipore) and eluted in 4 μL 50-75% v/v acetonitrile, 0.1% v/v trifluoroacetic acid (TFA).
For MALDI MS, a saturated MALDI matrix solution (α-cyano-4-hyroxycinnamic acid, CHCA, Bruker) prepared in 95% v/v acetonitrile, 0.1% v/v TFA was diluted 1:22 such that the final matrix solution comprised 90% v/v acetonitrile, 0.1% v/v TFA and 1 mM NH4H2PO4. Eluted samples were mixed 1:4 with the MALDI matrix, spotted onto a MALDI plate and analyzed by an Ultraflex III TOF/TOF (Bruker) in positive reflector mode. Data were analyzed using the flexAnalysis program (Bruker).
For ESI MS, 96 μl of 75% v/v acetonitrile, 01% v/v TFA was added to the de-salted sample. The sample was then injected into a MicroTOF Q (Bruker) and data was collected in positive ionisation mode. The mass of ligated or cyclized product was determined by charge deconvolution using the Compass DataAnalysis program (Bruker).
The ability of activated AEPs (rOaAEP1b, rOaAEP3, rOaAEP4 and rOaAEP5) to cyclize peptide substrates structurally unrelated to cyclotides was tested in the cyclization assay described in the Materials and Methods. The anti-malarial peptide R1 (Harris et al. (2009) J Biol Chem 284(14):9361-9371; Harris et al. (2005) Infect Immun 73(10):6981-6989); Bac2A, a linear derivative of the bovine peptide bactenecin (Wu and Hancock (1999) Antimicrob Agents Ch 43:1274-1276); and the anti-fungal peptide EcAMP1 (Nolde et al. (2011) J Biol Chem 286(28):25145-25153) were produced with additional AEP recognition residues and used as the substrates.
To investigate the sequence requirements for in vitro cyclization, R1 was used as a model peptide. The recognition residues added to this model peptide were sequentially trimmed to determine the minimal requirements for AEP-mediated cyclization. The N- and C-terminal recognition residues were also substituted with alternate amino acids to determine if particular classes of residues were preferred for cyclization by these recombinant AEPs. The ability of activated AEPs (rOaAEP1b, rOaAEP3, rOaAEP4 and rOaAEP5) to cyclize the R1 peptide with varied flanking sequences was then tested in the cyclization assay described in the Materials and Methods (FIG. 10; Table 3).

| Molecule | cyclization of linear precursor peptide by recombinant AEPs |
| --- | --- |
| GLPGSGRGSCRSQCMRRHEDEPWRVQECVSQCRRRRGGGDTRNGLP (additional AEP recognition residues; EcAMP1) [anti-fungal peptide EcAMP1 with additional AEP recognition residues] | efficiently cyclized |
| GLPRLARIVVIRVARTRNGLP (Bac2A) | efficiently cyclized |
| GLPVFAEFLPLFSKFGSRMHILKSTRNGL (R1) [anti-malarial peptide R1 produced with additional AEP recognition residues] | efficiently cyclized |

System: not listed separately
Assay: Protease activity against fluorogenic substrate Z-AAN-MCA
Assay type: biochemical
Details: enzyme ~5 μg mL^−1 total protein, Z-AAN-MCA 100 μM, 37° C., 60 minutes
Description: FIG. 15 is a graphical representation of the activity of recombinant O. affinis AEPs (˜5 μg mL^−1 total protein) and rhuLEG (1 μg mL^−1 total protein) over time against the fluorogenic substrate Z-AAN-MCA (100 μM). Activity is tracked at 1 minute intervals at 37° C. for 60 minutes using excitation and emission wavelengths of 360 and 460 nm respectively. A single representative experiment is shown. RFU, relative fluorescence units.
To assay activity of recombinant AEPs (rOaAEP1b, rOaAEP3, rOaAEP4 or rOaAEP5) against both internally-quenched and other fluorescent peptides, substrate and enzyme were diluted as appropriate in activity buffer (50 mM sodium acetate, 50 mM NaCl, 1 mM EDTA, 0.5 μM TCEP, pH 5). To assay activity of recombinant human legumain (rhuLEG; R&D systems) against the same substrates, the enzyme was first activated by incubation in 50 mM sodium acetate, 100 mM NaCl, pH 4 (4 μL buffer/1 μL enzyme) for 2 hours at 37° C. Substrates and activated rhuLEG were diluted in 50 mM acetate, 0.1% v/v triton X 100, 0.5 μM TCEP pH 5.5 or in 50 mM MES, 250 mM NaCl, pH 5 as required. Diluted enzyme and substrate were added to black, flat bottomed microtiter plates in a total assay volume of 100-200 μL. The change in fluorescence intensity over time was monitored on a SpectraMax M2 (Molecular Devices) using excitation/emission wavelengths of 320/420 nm (IQF peptides) or 360/460 nm (other fluorescent peptides).
AEP activity has traditionally been tracked by monitoring cleavage of the fluorescent substrate Z-AAN-MCA (where Z is carboxybenzyl; MCA is 7-amido-4-methylcoumarin) [Saska et al. (2007) supra; Rotari et al. (2001) Biol. Chem. 382:953-959]. Cleavage C-terminal to the Asn liberates the fluorophore which then fluoresces to report substrate cleavage. […] They are Ac-YVAD-CHO, which is routinely used to identify AEP activity (Hatsugai et al. (2004) Science 305(5685): 855-858) and Ac-STRN-CHO, which represents the P1-P4 residues of the C-terminal kB1 cleavage site. These traditional routes of identifying AEP activity will therefore likely be ineffective for identification of AEPs with cyclizing ability.

| Molecule | activity against Z-AAN-MCA |
| --- | --- |
| rOaAEP5: recombinant Oldenlandia affinis asparaginyl endopeptidase OaAEP5 | nor rOaAEP1b, rOaAEP3, rOaAEP4 or rOaAEP5 (FIG. 15) had detectable activity |
| B1 | nor rOaAEP1b, rOaAEP3, rOaAEP4 or rOaAEP5 (FIG. 15) had detectable activity |
| B2 | nor rOaAEP1b, rOaAEP3, rOaAEP4 or rOaAEP5 (FIG. 15) had detectable activity |
